Assay results reported in US8357692B2, “Methods of treatment of bone degenerative diseases” (Washington University, priority 2010, dated 2013).
Entries after “also recorded” stand apart in the source; their conditions may differ. Where two headings read alike, the source gives them in different places.

What was measured:
Body composition by MRI = type: in vivo, mice; details: 12 weeks of treatment, versus PBS
Procedure: MRI: Measurements of body composition were performed using the magnetic resonance imaging facility located at the Animal Model Research Core at Washington University (CNRU grant NIB P30 DK56341).
IL-17A inhibits adipocyte differentiation from human mesenchymal stem cells (Shin et al., Biochem. Pharmacol., 77(12), 1835-1844, 2009). IL17R−/− mice are heavier and have higher leptin levels, which is a marker of adopocyte mass (Galic et al., Mol. Cell Endocrinol., 316(2), 129-139, 2010; Goswami et al., Eur J Immunol, 39(10), 2831-2839, 2009). Leptin can stimulate IL-17 production (Liu et al., Br. J. Ophthalmol., 92(4), 557-561, 2008), and blood IL-17 levels are increased in obese women (Sumarac-Dumanovic et al., Int. J. Obes. (Lond), 33(1), 151-156, 2009). […] Eight week old mice (n=6 mice per group) were treated with Halofuginone or PBS for 12 weeks, after which body content was measured using MRI.

[1] = tested on: CD4+ T-cells producing IL-17 (Th17 cells); assay: Flow cytometry of spleen cells for CD4+ T-cells producing IL-17; type: in vivo; details: ovx mice treated daily for two weeks
[2] = tested on: IL-17 production and TH17 cell differentiation; details: cited from earlier work
bone formation = assay: Bone formation assay (calcein double labeling); type: in vivo; details: mice treated daily for 14 days, versus PBS control
Procedure: Bone formation assay (calcein double labeling): Mice were injected with 7.5 mg/kg calcein (Sigma-Aldrich; St. Louis, Mo.). Five days later mice were injected again, and tibias were harvested after an additional 2 days for histologic analysis. Dynamic assessment of trabecular bone formation was determined on non-decalcified sections using BioQuant software (Bioquant; Nashville, Tenn.). This software provided measures of bone surface, percent single-(sLS/BS) and double-labeled (dLS/BS) bone surface, mineralizing surface (MS/BS), mineral apposition rate (MAR), and bone formation rate (BFR/BS). Trabecular bone measurements were taken from a region encompassing a 500 μm-long field, across the width of the bone (located 100 μm below the growth plate). For each animal, 2 serial sections were analyzed and the measurements averaged. Pictures were obtained using an Olympus 1×51 fluorescent microscope fitted with Olympus DP70 camera (Olympus; Center Valley, Pa.).
Since Halofuginone inhibits type I collagen synthesis by fibroblasts and other cells, bone formation rates were tested to determine whether the rates are reduced in mice treated with the chemical. Mice were treated daily with HL or vehicle control for 14 days, while Calcein was injected on day 7 and 12, and Mineral Apposition Rates (MAR) and Bone Formation Rates (BFR) were determined.

collagen α1(I) = details: cited from earlier work
serum CTx = assay: Serum CTx ELISA in ovariectomized mice; type: in vivo; details: ovx mice treated daily, two weeks, relative to sham operated mice
fibrosis accumulation = details: rat urethral stricture, cirrhosis, pulmonary fibrosis models; cited from earlier work
[3] = tested on: ovariectomy-induced bone loss; assay: Ovariectomy-induced bone loss in mice, micro-CT of distal femora; type: in vivo
[4] = healthy male volunteers, cited from earlier work
P. falciparum FCR-3 = details: cited from earlier work; for antimalarial activity and selectivity in words: against P. falciparum in vitro
FM3A mouse mammary cells = details: cited from earlier work
RANKL = assay: RT-PCR for RANKL in primary osteoblasts; type: cell-based, mice; details: 24 hours
Procedure: RT-PCR: RNA was isolated using RNeasy kits (Qiagen); RLT lysis buffer was supplemented with β-mercaptoethanol (1%). Purified RNA was treated with DNase I (Invitrogen; Carlsbad, Calif.) prior to reverse transcription (RT). RT was performed using SuperScript III (Invitrogen). A negative control using RNA not subjected to reverse transcription was included in each assay. Quantitative PCR (qPCR) was performed using Applied Biosystems's (Foster City, Calif.) Power SYBR green master mix and gene specific primers. The qPCR reaction was run on Applied Biosystem's ABI Prism 7000. Transcript levels were normalized to cyclophilin.
To test the function of IL-17 signaling in the osteoblast, the inventors first determined the IL-17 receptor is expressed in osteoblasts, and its expression is unaffected by TNFα or IL-17 stimulation. Primary osteoblasts were stimulated with vehicle control, IL-17 (10 ng/ml), TNF (5 ng/ml), or a combination of the two for 24 hours, and RT-PCR for the IL-17 receptor and actin was performed (FIG. 6). Next the inventors cultured BMMs in combination with primary osteoblasts, Vitamin D, and varying IL-17 concentrations. Osteoblasts were lifted, then osteoclasts were fixed and TRAP stained. […] IL-17 receptor WT and KO osteoblasts were cultured with IL-17 (10 ng/ml) and BrdU for 24 hours, after which BrdU incorporation was measured by absorptiometry.

[5] = tested on: coculture of bone marrow macrophages (BMMs) with osteoblasts; assay: Osteoclast formation in coculture of bone marrow macrophages with osteoblasts; type: cell-based, mice; details: BMMs with primary osteoblasts, Vitamin D, varying concentrations
Procedure: Calvaria osteoblast isolation and culture: Whole calvaria were extracted from 3-4 day old pups and cleaned of soft and periostial tissue. Osteoblasts were liberated by 3×20 minute collagenase treatment at 37 degrees, shaking. Osteoblasts were transduced with appropriate virally expressed proteins when 50% confluent, selected with the appropriate antibiotic for 4 days, then plated for experiments. For cocultures, BMMs were cultured for 4 days prior to being lifted and then cultured with osteoblasts in α-MEM media containing pen/strep, 10% FBS and 10 nM VitD3, plus IL-17 or other cytokines where indicated.
To test whether IL-17 signaling is important in the pathogenesis of osteoporosis, the inventors mimicked the most common human form of osteoporosis, that of estrogen deficiency, by removing ovaries (ovx) in mice. […] Four weeks later, Micro-CT, a sensitive and specific measure of bone volume, was used to assess trabecular Bone Volume per Total Volume measured in the distal femora. […] Ovariectomized mice (n=5-7 mice per group) were treated with IL-17 blocking antibody or isotype control for two and four weeks and distal femora were analyzed by micro-CT.
To test the function of IL-17 signaling in the osteoblast, the inventors first determined the IL-17 receptor is expressed in osteoblasts, and its expression is unaffected by TNFα or IL-17 stimulation. […]

osteoblasts = assay: BrdU incorporation in osteoblasts; type: cell-based, mice; details: 10 ng/ml, 24 hours, IL-17 receptor WT and KO osteoblasts
Procedure: To test the function of IL-17 signaling in the osteoblast, the inventors first determined the IL-17 receptor is expressed in osteoblasts, and its expression is unaffected by TNFα or IL-17 stimulation. Primary osteoblasts were stimulated with vehicle control, IL-17 (10 ng/ml), TNF (5 ng/ml), or a combination of the two for 24 hours, and RT-PCR for the IL-17 receptor and actin was performed (FIG. 6). Next the inventors cultured BMMs in combination with primary osteoblasts, Vitamin D, and varying IL-17 concentrations. Osteoblasts were lifted, then osteoclasts were fixed and TRAP stained. […] Primary osteoblasts were stimulated with IL-17 or vehicle control for 24 hours, and RT-PCR was performed using primers for RANKL or actin. […] IL-17 receptor WT and KO osteoblasts were cultured with IL-17 (10 ng/ml) and BrdU for 24 hours, after which BrdU incorporation was measured by absorptiometry.

[6] = Table 1, against P. falciparum FCR-3, in vitro, read-out: EC50 (M) antimalarial activity
[7] = read-out: EC50 (M) cytotoxicity, Table 1, against FM3A mouse mammary cells
[8] = Table 2, against P. falciparum FCR-3, in vitro, read-out: EC50 (M) antimalarial activity
[9] = read-out: EC50 (M) cytotoxicity, Table 2, against FM3A mouse mammary cells

Compound: O=C(C[C@@H]1NCCC[C@H]1O)Cn1cnc2cc(Br)c(Cl)cc2c1=O [Halofuginone, 7-Bromo-6-chloro-3-[3-[(2S,3R)-3-hydroxy-2-piperidinyl]-2-oxopropyl]-4-quinazolinone]
- percent body fat (Body composition by MRI): reduced percent body fat
- percent lean mass (Body composition by MRI): small but statistically significant increase
- total fat mass (Body composition by MRI): significantly less total fat mass
- percentage of CD4+ T-cells producing IL-17 [1]: reduces Th17 cells; also recorded: significantly reduced
- TGFβ inhibition ([2]; at concentrations that inhibit IL-17 production): no TGFβ inhibition is seen
- IL-17 production and TH17 cell differentiation [2]: inhibits IL-17 production and TH17 cell differentiation
- bone formation rates (bone formation): does not affect bone formation; also recorded: equivalent bone formation rates
- Collagen type II or III (collagen α1(I)): not inhibited
- collagen α1(I) mRNA and protein levels (collagen α1(I); variety of cells): inhibits collagen α1(I) mRNA and protein levels
- serum CTx (serum CTx): reduces serum CTx; also recorded: blunted, non-statistically significant, increase
- fibrosis accumulation (fibrosis accumulation): inhibit fibrosis accumulation
- Connectivity Density ([3]; four weeks after ovariectomy, daily injection): completely protected
- ovariectomy-induced bone loss ([3]; four weeks post-ovx): lost significantly less bone than PBS injected mice; also recorded: protects from ovariectomy-induced bone loss; also recorded: lose significantly less bone
- BV/TV, BV, connectivity density, trabecular thickness, and trabecular number ([3]; ovx mice, daily treatment, four weeks, relative to sham): but not in Halofuginone treated ovx mice relative to sham
- Bone volume per total volume (BV/TV) ([3]; ovx mice, daily treatment, two weeks): significantly lower in vehicle treated ovx mice compared with either sham or Halofuginone treated ovx mice
- ovariectomy-induced bone loss ([3]; two weeks post-ovx): lost significantly less bone than PBS treated mice; also recorded: protects from ovariectomy-induced bone loss; also recorded: lose significantly less bone
- maximal tolerated dose ([4]; daily oral dose): 1.5 mg
- tolerability ([4]; oral, 1.5 to 2.5 mg): moderately tolerated
- tolerability of single oral doses ([4]; single oral doses of 0.07 and 0.5 mg): safe and well tolerated

Compound: C[C@@H]1CC[C@H]2[C@@H](C)C(=O)O[C@@H]3O[C@@]4(C)CC[C@@H]1[C@]32OO4 [artemisinin]
- EC50 (P. falciparum FCR-3; [6]): 1e-08 M
- EC50 (FM3A mouse mammary cells): 1e-05 M

Compound: CCN(CC)CCCC(C)Nc1ccnc2cc(Cl)ccc12 (stereo not drawn) [chloroquine]
- EC50 (P. falciparum FCR-3; [6]): 1.8e-08 M
- EC50 (FM3A mouse mammary cells; [7]): 3.2e-05 M

Compound: O=C(C[C@H]1NCCC[C@@H]1O)Cn1cnc2ccccc2c1=O [compound 1, febrifugine]
- EC50 (P. falciparum FCR-3; [6]): 7e-10 M
- EC50 (FM3A mouse mammary cells; [7]): 1.7e-07 M

Compound: O=c1c2ccccc2ncn1CC1(O)C[C@@H]2NCCC[C@@H]2O1 (stereo partly drawn) [compound 2, isofebrifugine]
- EC50 (P. falciparum FCR-3; [6]): 3.4e-09 M
- EC50 (FM3A mouse mammary cells): 1.8e-07 M

Compound: O=C(CC1NCCCC1=O)Cn1cnc2ccccc2c1=O (stereo not drawn) [compound 7]
- EC50 (P. falciparum FCR-3; [6]): 2e-08 M
- antimalarial activity and selectivity in words (P. falciparum FCR-3): potential antimalarial activity with high selectivity
- EC50 (FM3A mouse mammary cells; [7]): 1e-05 M

Compound: O=c1c2ccccc2ncn1CC(O)C[C@H]1NCCC[C@@H]1O (stereo partly drawn) [compound 8]
- EC50 (P. falciparum FCR-3; P. falciparum in vitro, read-out: EC50, in vitro antimalarial activity): 2e-08 M
- antimalarial activity and selectivity in words (P. falciparum FCR-3): strongly active and selective
- EC50 (FM3A mouse mammary cells; [7]): 1.5e-05 M

Compound: O=C(C[C@H]1NCCC[C@@H]1O)Cn1cnccc1=O [compound 12]
- EC50 (P. falciparum FCR-3; [6]): 6e-07 M
- EC50 (FM3A mouse mammary cells; [7]): > 1.9e-05 M

Compound: O=c1ccncn1CC1(O)C[C@@H]2NCCC[C@@H]2O1 (stereo partly drawn) [compound 13]
- EC50 (P. falciparum FCR-3; [6]): 4e-08 M
- EC50 (FM3A mouse mammary cells): 7e-06 M

Compound: O=C(C[C@H]1NCCC[C@@H]1O)Cn1ccc2ccccc2c1=O [compound 14]
- EC50 (P. falciparum FCR-3; [6]): 5e-07 M
- EC50 (FM3A mouse mammary cells; [7]): > 1.6e-05 M

Compound: O=c1c2ccccc2ccn1CC1(O)C[C@@H]2NCCC[C@@H]2O1 (stereo partly drawn) [compound 15]
- EC50 (P. falciparum FCR-3; [6]): 2.1e-06 M
- EC50 (FM3A mouse mammary cells): > 6.3e-06 M

Compound: CC1(C)[C@@H](N2CNc3ccccc3C2=O)C(O)=C[C@@H]2[C@@H](O)CCCN21 [compound 38]
- EC50 (P. falciparum FCR-3; [8]): 4.2e-07 M
- EC50 (FM3A mouse mammary cells; [9]): > 1.6e-05 M

Compound: CNc1ccccc1C(=O)N[C@H]1C(O)=C[C@@H]2[C@@H](O)CCCN2C1(C)C [compound 39]
- EC50 (P. falciparum FCR-3; [8]): 6e-07 M
- EC50 (FM3A mouse mammary cells; [9]): > 1.7e-05 M

Compound: IL-17: interleukin-17, cytokine promoting osteoclast formation, added to cultures
- RANKL mRNA expression in the osteoblast (RANKL): induced by IL-17
- osteoclast formation [5]: potently induced osteoclast formation
- osteoblast proliferation (BrdU incorporation) (osteoblasts): does not affect osteoblast proliferation
